Data on three compounds can be found in patent US8937072B2, “Substituted cyanoaniline compounds, preparation and use thereof” (Sinochem Corporation, priority 2011, dated 2015).

In one assay the test system is pear scab. The conditions noted are these: in vivo; cited from earlier work.
The subject of the next assay is cucumber gray mold. Kind of assay: Activity in vitro (96-well, High Through Put): inhibition rate against cucumber gray mold. The note with it: for inhibition at 0.3 µg/mL: 0.3 mg/L; for inhibition at 0.9 µg/mL: 0.9 mg/L; for inhibition at 2.8 µg/mL: 2.8 mg/L. The assay is classed as cell-based. The method, boiled down:
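Compound in acetone, methanol or DMF was combined with pathogen suspension under sterile conditions and held in a constant-temperature box. After 24 hours germination or growth was scored by eye against an untreated control to give the inhibition rate.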

The subject of a further assay is blast of rice. The conditions noted are these: at 500 ppm; cited from earlier work.
The next assay concerns rice blast. As to the kind of experiment: microbe, parasite or virus in culture. The assay is classed as cell-based. The conditions noted are these: Pyricularia oryzae; for inhibition at 0.03 µg/mL: read-out: the inhibition rate against rice blast (%) 0.03 mg/L; for inhibition at 0.1 µg/mL: read-out: the inhibition rate against rice blast (%) 0.1 mg/L; for inhibition at 0.3 µg/mL: read-out: the inhibition rate against rice blast (%) 0.3 mg/L.

The next assay relates to canker of citrus fruit. The conditions noted are these: at 500 ppm; cited from earlier work.
For a further assay, the system named is wheat powdery mildew. Kind of assay: Protectant activity in vivo (whole plant) against wheat powdery mildew. The conditions noted are these: Triticum aestivum, 168 h; dose 400 mg/L. The method, then:
The method is as followed: The whole plant is used in this test. The compound is dissolved in a proper solvent to get mother solution. The proper solvent is selected from acetone, methanol, DMF and so on according to their dissolving capability to the sample. The volume rate of solvent and testing solution (v/v) is equal to or less than 5%. The mother solution is diluted with water containing 0.1% tween-80 to get the testing solution whose concentration is designed. The testing solution is sprayed to the host plant by a special plant sprayer. The plant is inoculated with fungus after 24 hours. According to the infecting characteristic of fungus, the plant is stored in a humidity chamber and then transferred into greenhouse after infection is finished. And the other plants are placed in greenhouse directly. The activity of compound is obtained by eyeballing after 7 days in common.

The subject of a further assay is cucumber downy mildew. Kind of assay: Protectant activity in vivo (whole plant) against cucumber downy mildew. The note with it: Cucumis sativus, 168 h; for pest or weed control at 12.5 µg/mL: 12.5 mg/L; for pest or weed control at 400 µg/mL: dose 400 mg/L. An outline of the steps: (§1)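 Compound stock in organic solvent (≤5% v/v) diluted in water with 0.1% Tween-80 and sprayed onto whole host plants. Fungal inoculation 24 h later; humidity chamber then greenhouse as the pathogen requires. Activity rated visually, usually after 7 days.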

Another assay has as its system corn rust. Kind of assay: Protectant activity in vivo (whole plant) against corn rust. The note with it: Zea mays, 168 h; for pest or weed control at 6.25 µg/mL: 6.25 mg/L; for pest or weed control at 25 µg/mL: 25 mg/L; for pest or weed control at 100 µg/mL: 100 mg/L. The method, boiled down:
as §1

For another assay, the system named is plasmopora viticola. The conditions noted are these: at high dose; cited from earlier work.
The mark [1] stands for this setting: read-out: the inhibition rate against cucumber gray mold (%).
Setting [2] is: 8.3 mg/L, read-out: the inhibition rate against cucumber gray mold (%).
Where [3] appears, read: in vitro, dose 8.3 mg/L, read-out: inhibition rate against cucumber gray mold.
Where [4] appears, read: 25 mg/L, read-out: the protectant activity (%) against cucumber downy mildew.
[5] abbreviates: 50 mg/L, read-out: the protectant activity (%) against cucumber downy mildew.
Setting [6] is: 100 mg/L, read-out: the protectant activity (%) against cucumber downy mildew.
Setting [7] is: 400 mg/L, read-out: the protectant activity (%) against corn rust.
The mark [8] stands for this setting: dose 400 mg/L, read-out: protectant activity against corn rust in vivo.

Like-named read-outs stand apart in the source and are kept apart here.

For `N#Cc1c(F)c(F)c(Nc2ccccc2)c(C#N)c1F` [KC7], the “control against pear scab” value in the assay with pear scab was 100%. The inhibition at 0.3 µg/mL in the assay on cucumber gray mold and in the assay with rice blast was 0% throughout. In addition, in the assay on cucumber gray mold (setting [1]), the inhibition at 0.9 µg/mL was 0%. In addition, in the assay with cucumber gray mold (setting [1]), the inhibition at 2.8 µg/mL amounted to 0%. For the same compound, the inhibition at 8.3 µg/mL with cucumber gray mold (setting [2]) and with cucumber gray mold (setting [3]) was 0% throughout. In the assay on blast of rice, the “bacteriostatic diameter against blast of rice” value is given as 22.5 mm. In addition, in the assay on rice blast, the inhibition at 0.03 µg/mL is 0%. In addition, the inhibition at 0.1 µg/mL in the assay with rice blast worked out at 0%. Further, in the assay with canker of citrus fruit, the “bacteriostatic diameter against canker of citrus fruit” value is recorded as 13.8 mm. Moreover, the pest or weed control at 400 µg/mL in the assay with wheat powdery mildew worked out at 0%. The compound also showed a pest or weed control at 12.5 µg/mL in the assay on cucumber downy mildew of 0%. The pest or weed control at 25 µg/mL in the assay on cucumber downy mildew (setting [4]) was 0%; in the assay with cucumber downy mildew (dose 25 mg/L, read-out: protectant activity against cucumber downy mildew in vivo), 0%. For the same compound, the pest or weed control at 50 µg/mL came out at 10% with cucumber downy mildew (setting [5]) and 10% in the assay on cucumber downy mildew (dose 50 mg/L, read-out: protectant activity against cucumber downy mildew in vivo). The pest or weed control at 100 µg/mL is 20% with cucumber downy mildew (setting [6]) and 20% with cucumber downy mildew (dose 100 mg/L, read-out: protectant activity against cucumber downy mildew in vivo).

With `N#Cc1c(F)c(F)c(Nc2ccc(Cl)cc2)c(C#N)c1F` [KC8], in the assay on pear scab, the “control against pear scab” value is 90%. The inhibition at 0.3 µg/mL with cucumber gray mold and in the assay on rice blast was 0% in each case. The inhibition at 0.9 µg/mL with cucumber gray mold (setting [1]) worked out at 0%. Moreover, the inhibition at 2.8 µg/mL in the assay on cucumber gray mold (setting [1]) was found to be 0%. In addition, the inhibition at 8.3 µg/mL in the assay with cucumber gray mold (setting [2]) and in the assay with cucumber gray mold (setting [3]) was 0% each time. For the same compound, the “bacteriostatic diameter against blast of rice” value in the assay with blast of rice was 10.2 mm. Moreover, the inhibition at 0.03 µg/mL in the assay with rice blast turned out to be 0%. For the same compound, the inhibition at 0.1 µg/mL with rice blast was determined as 0%. Besides, the “bacteriostatic diameter against canker of citrus fruit” value in the assay with canker of citrus fruit is on record as 0 mm. The pest or weed control at 400 µg/mL with wheat powdery mildew, with corn rust (setting [7]), in the assay on corn rust (setting [8]) and with cucumber downy mildew was 0% each time. Also, the pest or weed control at 6.25 µg/mL in the assay on corn rust was 0%. Moreover, the pest or weed control at 25 µg/mL in the assay on corn rust and in the assay on cucumber downy mildew (setting [4]) was 0% throughout. The pest or weed control at 100 µg/mL with corn rust and in the assay on cucumber downy mildew (setting [6]) was 0% in each case. In the assay on cucumber downy mildew, this compound came in with a pest or weed control at 12.5 µg/mL of 0%. In addition, in the assay with cucumber downy mildew (setting [5]), the pest or weed control at 50 µg/mL stood at 0%.

Turning to `N#Cc1c(Cl)c(Cl)c(Nc2ccccc2)c(C#N)c1Cl` [KC1], the inhibition at 0.3 µg/mL in the assay with cucumber gray mold and with rice blast was 0% each time. Further, the inhibition at 0.9 µg/mL in the assay on cucumber gray mold (setting [1]) amounted to 0%. Further, in the assay with cucumber gray mold (setting [1]), the inhibition at 2.8 µg/mL was 0%. Further, in the assay on cucumber gray mold (setting [2]), the inhibition at 8.3 µg/mL was 0%. For the same compound, the inhibition at 25 µg/mL in the assay with cucumber gray mold (in vitro, dose 25 mg/L) was 0%; with rice blast (read-out: inhibition rate against rice blast) it was 0%. Besides, the inhibition at 0.03 µg/mL with rice blast stood at 0%. In the assay on rice blast, the inhibition at 0.1 µg/mL was found to be 0%. Further, the pest or weed control at 400 µg/mL in the assay with wheat powdery mildew, with corn rust (setting [7]), in the assay with corn rust (setting [8]) and with cucumber downy mildew was 0% throughout. Also, the pest or weed control at 6.25 µg/mL with corn rust came to 0%. Also, the pest or weed control at 25 µg/mL in the assay on corn rust and in the assay with cucumber downy mildew (setting [4]) was 0% throughout. The pest or weed control at 100 µg/mL with corn rust and in the assay with cucumber downy mildew (setting [6]) was 0% in each case. Also, the pest or weed control at 12.5 µg/mL in the assay with cucumber downy mildew came to 0%. Moreover, the pest or weed control at 50 µg/mL in the assay on cucumber downy mildew (setting [5]) stood at 0%. In the assay with plasmopora viticola, the “activity on relevant diseases such as plasmopora viticola” value is on record as “some activity”.
